Data taken from article PMC7594840, “Identification of histone deacetylase inhibitors with (arylidene)aminoxy scaffold active in uveal melanoma cell lines” (Journal of Enzyme Inhibition and Medicinal Chemistry, 2020).

system: HeLa nuclear extract containing a mixture of HDACs; assay: HDAC Fluorimetric Assay/Drug Discovery Kit (BIOMOL) on HeLa nuclear extract; format: biochemical; settings: means of at least three experiments, SD <20% of the mean
Description: The hydroxamic acids 1a–c, 2a–f and carboxylic acids 3a–c, 4a––e synthesised in this study were preliminarily tested on a HeLa nuclear extract containing a mixture of HDACs, by using a commercially available HDAC assay kit (BIOMOL). SAHA and Trichostatin A (TSA) were used as positive controls.
HDAC inhibitory activity of newly synthesised compounds was evaluated using an HDAC Fluorimetric Assay/Drug Discovery Kit (AK-500, BIOMOL). […] Reactions were stopped after 30 min by adding Fluor de Lys^TM Developer. After the addition of this developer, the plate was incubated at room temperature for 15 min, the fluorescence intensity of the wells was measured on a fluorometric plate reader with excitation set at 360 nm and emission detection set at 460 nm.

IC50 [µM]	SMILES
43.2	O=C(CCO/N=C/c1ccc(-c2ccccc2)cc1)NO [Compound 1b, (E)-3-((([1,1′-biphenyl]-4-ylmethylene)amino)oxy)-N-hydroxypropanamide]
3.35	O=C(CCO/N=C/c1ccc2ccccc2c1)NO [Compound 1c, (E)-N-hydroxy-3-(((naphthalen-2-ylmethylene)amino)oxy)propanamide]
2.88	CSc1ccc(/C=N/OCCCCC(=O)NO)cc1 [Compound 2a, (E)-N-hydroxy-5-(((4-(methylthio)benzylidene)amino)oxy)pentanamide]
4.6	O=C(CCCCO/N=C/c1ccccc1)NO [Compound 2d, (E)-5-((benzylideneamino)oxy)-N-hydroxypentanamide]

system: not given; assay: not given; settings: not given

melting point [°C]	SMILES
128 to 130	O=C(CCO/N=C/c1ccc(-c2ccccc2)cc1)NO [Compound 1b, (E)-3-((([1,1′-biphenyl]-4-ylmethylene)amino)oxy)-N-hydroxypropanamide]
153 to 155	O=C(CCO/N=C/c1ccc2ccccc2c1)NO [Compound 1c, (E)-N-hydroxy-3-(((naphthalen-2-ylmethylene)amino)oxy)propanamide]
134 to 136	O=C(CCCCO/N=C/c1ccccc1)NO [Compound 2d, (E)-5-((benzylideneamino)oxy)-N-hydroxypentanamide]
